The record followed here is DBAASP.

Molecules are shown by their SMILES. Converted amounts (≈) assume the structure as drawn.

What all share (assay): ≥ marks a high value that may be exact or a test limit, other limits are often not marked, values filed in µg/mL are converted to µM
Experiment [1] concerns Pseudomonas aeruginosa ATCC 27853.
Experiment [2] concerns Escherichia coli UB1005.
Experiment [3] deals with Escherichia coli DC2.
For experiment [4], the system named is Staphylococcus epidermidis C621.
The subject of experiment [5] is Escherichia coli ATCC 25922.
For experiment [6], the system named is Corynebacterium xerosis C875.
Experiment [7] deals with Staphylococcus aureus ATCC 25923.
In experiment [8] the test system is Escherichia coli ML-35p.
Experiment [9] relates to Candida albicans ATCC 2002.
The subject of experiment [10] is Bacillus subtilis.
Experiment [11] deals with Shigella dysenteriae.
Experiment [12] deals with Staphylococcus aureus.
For experiment [13], the system named is Staphylococcus aureus ATCC 2592.
Experiment [14] has as its system Candida albicans.
Experiment [15] concerns Escherichia coli.
Experiment [16] has as its system Acinetobacter baumannii.
The subject of experiment [17] is Streptococcus pneumoniae.
Experiment [18] relates to Enterococcus faecium.
Experiment [19] has as its system Staphylococcus aureus ATCC 43300.
Experiment [20] relates to Pseudomonas aeruginosa.
The subject of experiment [21] is Klebsiella pneumoniae.
The subject of experiment [22] is Bacillus subtilis ATCC 6633.
The subject of experiment [23] is Bacillus cereus.

On to `C[C@H](NC(=O)[C@H](C)NC(=O)[C@H](Cc1ccccc1)NC(=O)[C@H](C)NC(=O)[C@H](C)NC(=O)[C@H](Cc1c[nH]c2ccccc12)NC(=O)[C@H](C)NC(=O)[C@H](C)NC(=O)[C@H](Cc1ccccc1)NC(=O)[C@H](C)NC(=O)[C@H](C)NC(=O)[C@H](CCCN=C(N)N)NC(=O)[C@H](CCCN=C(N)N)NC(=O)[C@H](CCCN=C(N)N)NC(=O)[C@H](CCCN=C(N)N)NC(=O)[C@H](CCCN=C(N)N)NC(=O)[C@@H](N)CCCN=C(N)N)C(N)=O` [RRRRRRAAFAAWAAFAA], for which the minimum inhibitory concentration (MIC) in experiment [1] worked out at 8 µM (≈ 16 µg/mL); in experiment [2], 1 µM (≈ 2 µg/mL); in [3], 0.5 µM (≈ 1 µg/mL); in experiment [4], 4 µM (≈ 8.01 µg/mL); in experiment [5] it was 4 µM (≈ 8.01 µg/mL); in experiment [6] it was 0.5 µM (≈ 1 µg/mL).
Take `CC[C@H](C)[C@H](NC(=O)CNC(=O)[C@H](CCSC)NC(=O)CNC(=O)[C@H](C)NC(=O)[C@H](CO)NC(=O)[C@H](CCCCN)NC(=O)[C@H](C)NC(=O)[C@H](CC(C)C)NC(=O)[C@H](CC(=O)O)NC(=O)[C@@H](NC(=O)[C@H](C)NC(=O)[C@@H](NC(=O)[C@@H](NC(=O)[C@H](CCCCN)NC(=O)[C@@H](NC(=O)[C@H](CCCCN)NC(=O)[C@H](CC(=O)O)NC(=O)[C@H](CCCN=C(N)N)NC(=O)[C@@H](NC(=O)[C@@H](N)CO)[C@@H](C)CC)[C@@H](C)CC)[C@@H](C)O)[C@@H](C)CC)[C@@H](C)CC)C(=O)N[C@@H](CC(C)C)C(=O)N[C@@H](CCCCN)C(=O)N[C@H](C(=O)N[C@@H](CC(C)C)C(=O)N[C@H](C(=O)N[C@H]1CSSC[C@@H](C(=O)O)NC(=O)[C@H](CO)NC(=O)[C@H](CCCCN)NC(=O)[C@H](CC(=O)O)NC(=O)[C@H](CC(C)C)NC(=O)[C@H](CCCCN)NC1=O)[C@@H](C)CC)[C@@H](C)O` [SIRDKIKTIAIDLAKSAGMGILKTLICKLDKSC]: the MIC in [1] is over 28.2 µM; in experiment [7] it was 4.65 µM (≈ 16.5 µg/mL); in [8], 7.05 µM (≈ 25 µg/mL); in experiment [9], 4.23 µM (≈ 15 µg/mL); in experiment [10] it was 5.28 µM (≈ 18.7 µg/mL).
Regarding `CC[C@H](C)[C@H](NC(=O)CNC(=O)[C@H](CO)NC(=O)[C@H](CC(C)C)NC(=O)[C@H](CC(C)C)NC(=O)CN)C(=O)N[C@@H](CC(C)C)C(=O)NCC(=O)N[C@@H](C)C(=O)NCC(=O)N[C@@H](CCCCN)C(=O)N[C@@H](Cc1cnc[nH]1)C(=O)N[C@H](C(=O)N[C@H](C(=O)N[C@H]1CSSC[C@@H](C(=O)O)NC(=O)[C@H](CC(C)C)NC(=O)CNC(=O)[C@H](CO)NC(=O)[C@H](CC(C)C)NC(=O)CNC1=O)C(C)C)[C@@H](C)CC` [GLLSGILGAGKHIVCGLSGLC], the MIC in experiment [11] was 1.27 µM (≈ 2.5 µg/mL); in experiment [12], 38.1 µM (≈ 74.9 µg/mL); in experiment [13], 1.27 µM (≈ 2.5 µg/mL); in [14] it was 4.76 µM (≈ 9.36 µg/mL); in [15] it was over 50.8 µM; in [9] it was 3.81 µM (≈ 7.49 µg/mL). For the same molecule, the MIC in experiment [5] was found to be 2.54 µM (≈ 5 µg/mL); in experiment [10], 4.76 µM (≈ 9.36 µg/mL).
On to `CC[C@H](C)[C@H](NC(=O)CNC(=O)[C@H](Cc1cnc[nH]1)NC(=O)CNC(=O)CN)C(=O)N[C@@H](CCCN=C(N)N)C(=O)N[C@@H](CCCN=C(N)N)C(=O)N[C@H](C(=O)N[C@H](C(=O)N[C@@H](CCCN=C(N)N)C(=O)N[C@@H](CCCCN)C(=O)N[C@H](C(=O)N[C@H](C(=O)N[C@@H](Cc1cnc[nH]1)C(=O)N[C@H](C(=O)N[C@H](C(=O)N[C@@H](CCCCN)C(=O)N[C@@H](CCCCN)C(N)=O)[C@@H](C)CC)[C@@H](C)CC)[C@@H](C)CC)[C@@H](C)CC)[C@@H](C)CC)[C@@H](C)CC` [GGHGIRRIIRKIIHIIKK], for which the MIC in experiment [16] was 2.7 µM (≈ 5.69 µg/mL); in experiment [17], 16 µM (≈ 33.7 µg/mL); in experiment [18] it was 16 µM (≈ 33.7 µg/mL); in experiment [5], over 16 µM; in experiment [19], 16 µM (≈ 33.7 µg/mL); in experiment [20], over 16 µM. Besides, the MIC in experiment [21] worked out at 16 µM (≈ 33.7 µg/mL).
Take `CC(C)[C@H](NC(=O)[C@H](C)NC(=O)[C@H](C)NC(=O)[C@H](C)NC(=O)[C@H](CCCCN)NC(=O)[C@@H](N)CCCCN)C(=O)N[C@@H](C)C(=O)N[C@@H](C)C(=O)N[C@@H](C)C(=O)N[C@@H](C)C(=O)N[C@@H](C)C(=O)N[C@H](C(=O)N[C@@H](C)C(=O)N[C@@H](C)C(=O)N[C@@H](Cc1c[nH]c2ccccc12)C(=O)N[C@@H](C)C(=O)N[C@@H](C)C(=O)N[C@H](C(=O)N[C@@H](C)C(=O)N[C@@H](C)C(=O)N[C@@H](C)C(=O)N[C@@H](CCCCN)C(=O)N[C@@H](CCCCN)C(=O)N[C@@H](CCCCN)C(=O)N[C@@H](CCCCN)C(N)=O)C(C)C)C(C)C` [KKAAAVAAAAAVAAWAAVAAAKKKK]: the MIC in experiment [2] was at least 32 µM; in experiment [3], at least 32 µM; in [4], at least 32 µM; in experiment [6], 0.5 µM (≈ 1.17 µg/mL).
As to `CC[C@H](C)[C@H](NC(=O)CN)C(=O)N[C@@H](CC(C)C)C(=O)N[C@@H](CC(=O)O)C(=O)N1CCC[C@H]1C(=O)N[C@H](C(=O)N[C@@H](CCCCN)C(=O)N[C@@H](C)C(=O)N[C@@H](Cc1ccccc1)C(=O)N[C@@H](C)C(=O)N[C@@H](CCCCN)C(=O)N[C@@H](C)C(=O)N[C@@H](C)C(=O)NCC(N)=O)[C@@H](C)CC` [GILDPIKAFAKAAG], the MIC in experiment [22] was 8.02 µM (≈ 11 µg/mL); in experiment [11], 4.01 µM (≈ 5.5 µg/mL); in experiment [13] it was 4.01 µM (≈ 5.5 µg/mL); in experiment [9] it was at least 32.1 µM; in experiment [23], 16 µM (≈ 22 µg/mL); in [5], 16 µM (≈ 22 µg/mL). In experiment [20], this molecule showed a minimal inhibitory concentration (MIC) of 8.02 µM (≈ 11 µg/mL).
`C[C@H](NC(=O)[C@H](C)NC(=O)[C@H](C)NC(=O)[C@H](C)NC(=O)[C@H](C)NC(=O)[C@H](C)NC(=O)[C@H](C)NC(=O)[C@H](CCCCN)NC(=O)[C@@H](N)CCCCN)C(=O)N[C@@H](C)C(=O)N[C@@H](C)C(=O)N[C@@H](C)C(=O)N[C@@H](C)C(=O)N[C@@H](C)C(=O)N[C@@H](Cc1c[nH]c2ccccc12)C(=O)N[C@@H](C)C(=O)N[C@@H](C)C(=O)N[C@@H](C)C(=O)N[C@@H](C)C(=O)N[C@@H](C)C(=O)N[C@@H](C)C(=O)N[C@@H](CCCCN)C(=O)N[C@@H](CCCCN)C(=O)N[C@@H](CCCCN)C(=O)N[C@@H](CCCCN)C(N)=O` [KKAAAAAAAAAAAAWAAAAAAKKKK]: the MIC was at least 64 µM in [2], at least 64 µM in experiment [3], at least 64 µM in experiment [4] and 2 µM (≈ 4.5 µg/mL) in experiment [6].
With `C[C@H](NC(=O)[C@H](C)NC(=O)[C@H](C)NC(=O)[C@H](CCCN=C(N)N)NC(=O)[C@H](C)NC(=O)[C@H](C)NC(=O)[C@H](C)NC(=O)[C@H](CCCCN)NC(=O)[C@@H](N)CCCCN)C(=O)N[C@@H](C)C(=O)N[C@@H](C)C(=O)N[C@@H](CCCN=C(N)N)C(=O)N[C@@H](C)C(=O)N[C@@H](C)C(=O)N[C@@H](Cc1c[nH]c2ccccc12)C(=O)N[C@@H](C)C(=O)N[C@@H](C)C(=O)N[C@@H](CCCN=C(N)N)C(=O)N[C@@H](C)C(=O)N[C@@H](C)C(=O)N[C@@H](C)C(=O)N[C@@H](CCCCN)C(=O)N[C@@H](CCCCN)C(=O)N[C@@H](CCCCN)C(=O)N[C@@H](CCCCN)C(N)=O` [KKAAARAAAAARAAWAARAAAKKKK], the MIC in experiment [2] is at least 64 µM; in experiment [3], at least 32 µM; in experiment [4] it was at least 64 µM; in experiment [6] it was 8 µM (≈ 20.1 µg/mL).

In general, MIC refers to the lowest concentration found to suppress growth. Low readings indicate greater potency, high ones weaker potency.
